Strand notation (5' to 3'): a small letter for the sugar, then the base; units joined by * are phosphorothioate-linked, units joined directly phosphodiester-linked; [ ] holds rarer units or linkages, { } end groups; capitals alone tell only the bases. k = constrained ethyl (cEt); [5mC] = 5-methylcytosine; d = 2'-deoxy (DNA)
The substances below were run on human SMAD7 mRNA (assay: Antisense inhibition of human SMAD7 mRNA expression in Hep3B cells by 3-10-3 cEt gapmers, 10,000 nM, electroporation (Example 2)). Settings: Hep3B cells, 10,000 nM antisense oligonucleotide, electroporation, approximately 24 hours, RT-PCR primer probe set RTS5062, relative to untreated control cells.
Type: cell-based
Outline: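 qRT-PCR (RTS5062) of SMAD7 mRNA, normalised to RIBOGREEN total RNA, gave percent inhibition relative to untreated controls. Hep3B cells at 20,000 per well received 10,000 nM oligonucleotide by electroporation, with ~24 h treatment.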
“799974 (kG*kA*k[5mC]*dT*d[5mC]*d[5mC]*dA*dG*dT*dG*d[5mC]*d[5mC]*dA*kA*kT*k[5mC]; antisense) [compound 799974]” was tested, and the “% Inhibition” value was 23%.
For “799873 (kA*kA*kA*dA*dG*dT*dT*dA*dA*dT*d[5mC]*dA*dT*kT*kA*k[5mC]; antisense) [compound 799873]”, the “% Inhibition” value was 0%.
For “798911 (kG*k[5mC]*kA*d[5mC]*dG*d[5mC]*dG*dG*d[5mC]*dT*dA*d[5mC]*d[5mC]*kG*kG*k[5mC]; antisense) [compound 798911]”, the “% Inhibition” value was 0%.
In the case of “799991 (kG*kG*k[5mC]*d[5mC]*dG*d[5mC]*d[5mC]*dT*d[5mC]*d[5mC]*dT*dG*d[5mC]*kA*kG*kG; antisense) [compound 799991]”, the “% Inhibition” value is reported as 19%.
In the case of “798877 (k[5mC]*kA*kT*dT*dG*dG*dG*d[5mC]*d[5mC]*dG*d[5mC]*dT*dG*k[5mC]*kA*kG; antisense) [compound 798877]”, the “% Inhibition” value is reported as 24%.
For “798913 (k[5mC]*k[5mC]*k[5mC]*dT*d[5mC]*d[5mC]*dG*d[5mC]*dA*d[5mC]*dG*d[5mC]*dG*kG*k[5mC]*kT; antisense) [compound 798913]”, the “% Inhibition” value was 21%.

Same assay, conditions: Hep3B cells, electroporation with 10,000 nM antisense oligonucleotide, approximately 24 hours, RTS5062, percent inhibition of SMAD7 mRNA relative to untreated control cells
In the case of “799610 (kG*kG*kG*dA*dG*dA*dA*dA*d[5mC]*dT*d[5mC]*d[5mC]*dT*k[5mC]*kA*kG; antisense) [compound 799610]”, the “% Inhibition” value is reported as 45%.
In the case of “799549 (kG*k[5mC]*kT*d[5mC]*d[5mC]*dT*dA*d[5mC]*dT*dG*dT*dT*dG*kG*k[5mC]*kA; antisense) [compound 799549]”, the “% Inhibition” value is reported as 53%.
For “799651 (antisense kA*kG*kG*dA*d[5mC]*dA*dG*d[5mC]*dA*dG*dA*d[5mC]*dA*kG*kG*k[5mC]) [compound 799651]”, the “% Inhibition” value was 55%.
With “799525 (antisense kA*kG*kG*dT*dT*dT*dG*dG*dG*dT*dT*dG*dG*kA*k[5mC]*kT) [compound 799525]” the “% Inhibition” value was 8%.

Same assay, conditions: Hep3B cells, electroporation with 10,000 nM antisense oligonucleotide, approximately 24 hours, SMAD7 mRNA by RT-PCR (RTS5062), relative to untreated control cells
In the case of “772556 (antisense kA*kG*k[5mC]*dA*dG*dG*dA*dG*dG*d[5mC]*dA*d[5mC]*dG*k[5mC]*kG*kG) [compound 772556]”, the “% Inhibition” value is reported as 43%.
For “830191 (antisense k[5mC]*kT*kA*dA*dT*d[5mC]*dA*dG*dA*dT*dG*d[5mC]*d[5mC]*kT*kG*k[5mC]) [compound 830191]”, the “% Inhibition” value was 47%.
In the case of “800043 (kT*kG*k[5mC]*d[5mC]*dA*dG*dG*d[5mC]*d[5mC]*dT*dG*dT*d[5mC]*kA*kG*k[5mC]; antisense) [compound 800043]”, the “% Inhibition” value is reported as 31%.
With “790496 (kG*k[5mC]*kA*dG*dA*dG*dT*d[5mC]*dG*dG*d[5mC]*dT*dA*kA*kG*kG; antisense) [compound 790496]” the “% Inhibition” value was 42%.
With “830127 (antisense k[5mC]*k[5mC]*kT*d[5mC]*d[5mC]*dG*dA*dG*dG*d[5mC]*dA*d[5mC]*d[5mC]*kA*k[5mC]*kA) [compound 830127]” the “% Inhibition” value was 62%.
“798739 (antisense k[5mC]*kG*k[5mC]*d[5mC]*dT*dT*d[5mC]*dA*dG*dA*dT*d[5mC]*d[5mC]*kG*k[5mC]*k[5mC]) [compound 798739]” was tested, and the “% Inhibition” value was 37%.
“830201 (antisense k[5mC]*kT*kG*dA*dA*dG*dG*d[5mC]*dT*dA*d[5mC]*dA*d[5mC]*k[5mC]*kA*kA) [compound 830201]” was tested, and the “% Inhibition” value was 37%.
With “799883 (kT*k[5mC]*kT*dA*dG*dA*dG*dG*dG*dT*dA*dG*dG*kA*kA*kA; antisense) [compound 799883]” the “% Inhibition” value was 9%.
For “798832 (kA*kT*k[5mC]*dA*dT*dA*dG*dA*dA*dG*dA*dT*dA*kT*k[5mC]*k[5mC]; antisense) [compound 798832]”, the “% Inhibition” value was 41%.
For “772557 (antisense kG*kT*k[5mC]*d[5mC]*dA*dG*dG*d[5mC]*dG*dG*d[5mC]*d[5mC]*dG*kG*kG*k[5mC]) [compound 772557]”, the “% Inhibition” value was 2%.
For “830032 (antisense kG*k[5mC]*kT*dA*d[5mC]*d[5mC]*dT*dA*dA*dT*dG*dT*d[5mC]*kA*kA*k[5mC]) [compound 830032]”, the “% Inhibition” value was 35%.
“799475 (antisense kG*kT*kG*dA*dG*d[5mC]*dT*dG*dG*dG*d[5mC]*dT*dA*kT*kT*k[5mC]) [compound 799475]” was tested, and the “% Inhibition” value was 51%.

Same assay, conditions: Hep3B cells, electroporation with 10,000 nM antisense oligonucleotide, approximately 24 hours, primer probe set RTS5062, relative to untreated control cells
For “799244 (kG*kG*kG*d[5mC]*d[5mC]*dA*d[5mC]*dT*dG*dG*dT*dG*dT*kT*k[5mC]*kG; antisense) [compound 799244]”, the “% inhibition of SMAD7 mRNA expression” value was 8%.
“798691 (antisense k[5mC]*kG*k[5mC]*dA*d[5mC]*dG*dG*d[5mC]*dT*d[5mC]*d[5mC]*dT*d[5mC]*k[5mC]*kA*kG) [compound 798691]” was tested, and the “% inhibition of SMAD7 mRNA expression” value was 42%.
For “798955 (antisense kT*kT*k[5mC]*dA*dT*dA*dA*dG*d[5mC]*dT*dA*dT*dT*kT*k[5mC]*kT) [compound 798955]”, the “% Inhibition” value was 15%.
“799117 (antisense kG*k[5mC]*kT*dT*dA*dA*d[5mC]*dA*d[5mC]*dA*d[5mC]*dA*dG*kG*kA*kT) [compound 799117]” was tested, and the “% Inhibition” value was 46%.
With “790655 (k[5mC]*kG*kT*dG*dT*dT*dA*dA*dA*dG*d[5mC]*dT*dG*kA*kG*k[5mC]; antisense) [compound 790655]” the “% inhibition of SMAD7 mRNA expression” value was 42%.
For “799047 (antisense kT*kT*kG*dA*dT*dG*dA*dG*dG*dG*dA*dG*dA*kG*kG*kA) [compound 799047]”, the “% inhibition of SMAD7 mRNA expression” value was 63%.
“799400 (antisense kG*kG*kA*dA*dA*dA*d[5mC]*d[5mC]*dT*d[5mC]*d[5mC]*dA*dA*kA*kT*kT) [compound 799400]” was tested, and the “% inhibition of SMAD7 mRNA expression” value was 0%.
“799066 (antisense kT*kG*kA*dA*dA*dA*dT*dA*dA*dT*dT*dG*dG*kT*kT*k[5mC]) [compound 799066]” was tested, and the “% inhibition of SMAD7 mRNA expression” value was 0%.
With “799010 (k[5mC]*kG*kT*dT*dG*dT*d[5mC]*dT*d[5mC]*d[5mC]*d[5mC]*d[5mC]*dA*kT*k[5mC]*kT; antisense) [compound 799010]” the “% inhibition of SMAD7 mRNA expression” value was 57%.
“798976 (antisense kT*kG*kG*dA*dT*dT*dT*d[5mC]*dT*dG*d[5mC]*dT*dT*k[5mC]*k[5mC]*k[5mC]) [compound 798976]” was tested, and the “% Inhibition” value was 19%.
In the case of “798761 (kG*kA*k[5mC]*dG*dA*dG*dG*dG*d[5mC]*dG*dG*d[5mC]*dT*kG*k[5mC]*kG; antisense) [compound 798761]”, the “% inhibition of SMAD7 mRNA expression” value is reported as 39%.
In the case of “799205 (antisense kT*kA*kA*dA*dT*d[5mC]*dT*d[5mC]*dA*dG*dG*dT*dT*kT*kT*kT) [compound 799205]”, the “% inhibition of SMAD7 mRNA expression” value is reported as 54%.
“799497 (antisense kA*kA*kG*dA*dA*d[5mC]*dT*d[5mC]*dT*d[5mC]*d[5mC]*dT*dA*kA*kG*k[5mC]) [compound 799497]” was tested, and the “% inhibition of SMAD7 mRNA expression” value was 0%.
In the case of “798973 (antisense kT*k[5mC]*k[5mC]*dT*dA*dT*d[5mC]*dA*dG*dG*dG*dT*dG*kT*k[5mC]*k[5mC]) [compound 798973]”, the “% Inhibition” value is reported as 30%.
With “798689 (antisense kG*k[5mC]*k[5mC]*dG*dG*dA*d[5mC]*dG*dA*dG*d[5mC]*dG*d[5mC]*kA*kG*kA) [compound 798689]” the “% inhibition of SMAD7 mRNA expression” value was 33%.
In the case of “790468 (kG*k[5mC]*kG*dA*dG*dG*dA*dG*dA*dA*dA*dA*dG*kT*k[5mC]*kG; antisense) [compound 790468]”, the “% inhibition of SMAD7 mRNA expression” value is reported as 0%.
With “799381 (antisense kA*kA*k[5mC]*dA*dG*dA*dT*d[5mC]*dT*dA*dT*d[5mC]*dT*k[5mC]*k[5mC]*kT) [compound 799381]” the “% inhibition of SMAD7 mRNA expression” value was 54%.

Same assay, conditions: Hep3B cells, electroporation, 10,000 nM, approximately 24 hours; 3-10-3 cEt gapmers targeting SEQ ID NO: 3 and 4
For “829941 (k[5mC]*kA*kG*dT*d[5mC]*dA*dG*dT*dT*dG*dG*dT*dT*kT*kG*kA; antisense) [compound 829941]”, the “% inhibition of SMAD7 mRNA expression” value was 8%.

Same assay, conditions: SMAD7 mRNA, Hep3B cells, 10,000 nM antisense oligonucleotide, electroporation, approximately 24 hours, primer probe set RTS5062, relative to untreated control cells
“800769 (antisense kG*k[5mC]*kA*dG*dG*d[5mC]*dG*dA*d[5mC]*dA*dG*d[5mC]*dA*kG*k[5mC]*kA) [compound 800769]” was tested, and the “% Inhibition” value was 49%.
“772591 (kA*kG*kT*dG*dT*dG*dA*d[5mC]*d[5mC]*dG*dA*dT*d[5mC]*k[5mC]*k[5mC]*k[5mC]; antisense) [compound 772591]” was tested, and the “% Inhibition” value was 60%.
With “829743 (antisense kA*k[5mC]*kG*d[5mC]*d[5mC]*dG*dG*dA*d[5mC]*dG*dA*dG*d[5mC]*kG*k[5mC]*kA) [compound 829743]” the “% Inhibition” value was 25%.
For “801128 (antisense kA*kG*kT*dA*dT*d[5mC]*d[5mC]*dA*dT*d[5mC]*dA*dA*d[5mC]*kT*kG*k[5mC]) [compound 801128]”, the “% Inhibition” value was 48%.

Same assay, conditions: SMAD7 mRNA, Hep3B cells, electroporation with 10,000 nM antisense oligonucleotide, approximately 24 hours, primer probe set RTS5062, relative to untreated control cells
In the case of “829832 (kT*kG*kA*d[5mC]*d[5mC]*dG*dA*dT*d[5mC]*d[5mC]*d[5mC]*d[5mC]*dA*kG*kG*k[5mC]; antisense) [compound 829832]”, the “% Inhibition” value is reported as 51%.
In the case of “829935 (k[5mC]*kT*kA*dG*dG*dT*dG*dA*dT*dA*dA*d[5mC]*dA*k[5mC]*k[5mC]*k[5mC]; antisense) [compound 829935]”, the “% Inhibition” value is reported as 0%.
For “829891 (antisense kA*kT*k[5mC]*dT*dG*d[5mC]*dA*d[5mC]*dG*dG*dT*dA*dA*kA*kG*k[5mC]) [compound 829891]”, the “% Inhibition” value was 25%.
With “829917 (antisense kA*kG*kT*dG*dT*dA*dT*dG*dA*dG*dT*dT*dG*kT*kA*kG) [compound 829917]” the “% Inhibition” value was 45%.
For “829971 (kG*k[5mC]*k[5mC]*dA*d[5mC]*dA*d[5mC]*dA*d[5mC]*d[5mC]*dT*d[5mC]*dA*kA*k[5mC]*kG; antisense) [compound 829971]”, the “% Inhibition” value was 20%.
